Measured values published in the NIST ThermoML archive (doi:10.1016/j.tca.2012.07.004).

Assay: xn = mol fraction of the nth substance listed
Conditions: 101 kPa, Liquid; for mass density: Vibrating tube method; for viscosity: Vibrating wire viscometry; for speed of sound: ultrasonic interferometer

CCN(CC)CC.O=P(O)(O)O [triethylammonium dihydrogen phosphate] + CN1CCCC1=O
Conditions	mass density [kg/m3]	speed of sound [m/s]	viscosity [mPa·s]
298.15 K, x1 = 0.0115	1032	1574	1.95
298.15 K, x1 = 0.0257	1036.63	1580	2.23
298.15 K, x1 = 0.0702	1047.93	1602	2.5
298.15 K, x1 = 0.0995	1054.84	1624	3.22
298.15 K, x1 = 0.1498	1065.79	1657	4.42
298.15 K, x1 = 0.2409	1081.01	1711	6.12
298.15 K, x1 = 0.282	1086.8	1735	6.52
298.15 K, x1 = 0.3482	1094.7	1763	7.12
298.15 K, x1 = 0.4709	1105.46	1806	10.71
298.15 K, x1 = 0.6161	1114.03	1831	17.12
298.15 K, x1 = 0.6975	1117.42	1836	22.9
298.15 K, x1 = 0.7906	1120.24	1829	31.5
298.15 K, x1 = 0.9135	1123.51	1817	47.02
298.15 K, x1 = 0.9579	1124.64	1809	53.91
298.15 K, x1 = 1	1125.7	1794	64.31
303.15 K, x1 = 0.0115	1027.87	1558	0.97
303.15 K, x1 = 0.0257	1032.6	1570	1.24
303.15 K, x1 = 0.0702	1044.24	1595	2.49
303.15 K, x1 = 0.0995	1051.16	1620	3.17
303.15 K, x1 = 0.1498	1061.32	1656	3.8
303.15 K, x1 = 0.2409	1076.95	1706	5.27
303.15 K, x1 = 0.282	1083.03	1719	5.55
303.15 K, x1 = 0.3482	1090.71	1753	6.53
303.15 K, x1 = 0.4709	1101.42	1796	8.32
303.15 K, x1 = 0.6161	1110.51	1820	13.52
303.15 K, x1 = 0.6975	1114.2	1826	18.9
303.15 K, x1 = 0.7906	1117.34	1819	26.91
303.15 K, x1 = 0.9135	1121.34	1804	41.33
303.15 K, x1 = 0.9579	1123.03	1791	49.31
303.15 K, x1 = 1	1124.68	1769	57.1
308.15 K, x1 = 0.0115	1023.39	1539	1.07
308.15 K, x1 = 0.0257	1028.04	1544	1.05
308.15 K, x1 = 0.0702	1039.93	1577	1.97
308.15 K, x1 = 0.0995	1046.49	1600	2.57
308.15 K, x1 = 0.1498	1057.16	1636	2.91
308.15 K, x1 = 0.2409	1072.56	1689	4.13
308.15 K, x1 = 0.282	1078.25	1711	4.19
308.15 K, x1 = 0.3482	1086.21	1744	5.05
308.15 K, x1 = 0.4709	1097.31	1789	6.42
308.15 K, x1 = 0.6161	1106.86	1816	11
308.15 K, x1 = 0.6975	1111.06	1819	15.83
308.15 K, x1 = 0.7906	1114.71	1813	23.02
308.15 K, x1 = 0.9135	1119.77	1788	35.92
308.15 K, x1 = 0.9579	1121.61	1769	42.41
308.15 K, x1 = 1	1123.71	1757	49.53
313.15 K, x1 = 0.0115	1018.9	1540	1.61
313.15 K, x1 = 0.0257	1023.44	1552	1.37
313.15 K, x1 = 0.0702	1034.5	1576	1.48
313.15 K, x1 = 0.0995	1041.32	1594	1.81
313.15 K, x1 = 0.1498	1052.28	1630	1.88
313.15 K, x1 = 0.2409	1067.96	1685	1.95
313.15 K, x1 = 0.282	1074.06	1708	2.5
313.15 K, x1 = 0.3482	1081.89	1737	2.99
313.15 K, x1 = 0.4709	1093.3	1785	4.42
313.15 K, x1 = 0.6161	1103.08	1808	8.18
313.15 K, x1 = 0.6975	1107.89	1810	11.52
313.15 K, x1 = 0.7906	1111.88	1804	17.2
313.15 K, x1 = 0.9135	1117.73	1772	28.3
313.15 K, x1 = 0.9579	1119.92	1758	33.32
313.15 K, x1 = 1	1122.37	1730	38.31

CC(=O)[O-].C[NH+](C)C [trimethylammonium acetate] + CN1CCCC1=O
Conditions	mass density [kg/m3]	speed of sound [m/s]	viscosity [mPa·s]
298.15 K, x1 = 0.0182	1028.63	1571	2.04
298.15 K, x1 = 0.0369	1030.53	1575	2.28
298.15 K, x1 = 0.0987	1036.87	1578	3.04
298.15 K, x1 = 0.1401	1039.96	1581	3.42
298.15 K, x1 = 0.2032	1043.65	1586	3.89
298.15 K, x1 = 0.3166	1047.89	1584	4.5
298.15 K, x1 = 0.3637	1048.9	1582	4.56
298.15 K, x1 = 0.4353	1049.74	1580	4.61
298.15 K, x1 = 0.5625	1049.92	1571	4.52
298.15 K, x1 = 0.6999	1049.74	1559	4.23
298.15 K, x1 = 0.8435	1050.4	1550	3.7
298.15 K, x1 = 0.936	1051.83	1544	3.27
298.15 K, x1 = 0.9675	1052.54	1543	3.02
298.15 K, x1 = 1	1053.85	1544	2.76
303.15 K, x1 = 0.0182	1026.1	1556	1.64
303.15 K, x1 = 0.0369	1027.79	1560	1.86
303.15 K, x1 = 0.0987	1033.52	1565	2.56
303.15 K, x1 = 0.1401	1036.31	1568	3
303.15 K, x1 = 0.2032	1039.76	1572	3.48
303.15 K, x1 = 0.3166	1043.59	1569	4.05
303.15 K, x1 = 0.3637	1044.52	1566	4.11
303.15 K, x1 = 0.4353	1045.32	1564	4.16
303.15 K, x1 = 0.5625	1045.54	1551	4.01
303.15 K, x1 = 0.6999	1045.69	1537	3.64
303.15 K, x1 = 0.8435	1046.54	1524	3.14
303.15 K, x1 = 0.936	1048.22	1517	2.78
303.15 K, x1 = 0.9675	1048.93	1515	2.52
303.15 K, x1 = 1	1049.87	1514	2.37
308.15 K, x1 = 0.0182	1021.24	1534	1.43
308.15 K, x1 = 0.0369	1023.08	1540	1.57
308.15 K, x1 = 0.0987	1028.14	1546	2.23
308.15 K, x1 = 0.1401	1030.79	1550	2.64
308.15 K, x1 = 0.2032	1034.23	1555	3.14
308.15 K, x1 = 0.3166	1037.97	1554	3.7
308.15 K, x1 = 0.3637	1039.05	1553	3.76
308.15 K, x1 = 0.4353	1039.98	1551	3.77
308.15 K, x1 = 0.5625	1040.55	1540	3.52
308.15 K, x1 = 0.6999	1040.85	1530	3.12
308.15 K, x1 = 0.8435	1042	1519	2.64
308.15 K, x1 = 0.936	1043.81	1512	2.34
308.15 K, x1 = 0.9675	1044.69	1511	2.16
308.15 K, x1 = 1	1045.81	1508	2.06
313.15 K, x1 = 0.0182	1016.53	1528	1.52
313.15 K, x1 = 0.0369	1017.98	1533	1.38
313.15 K, x1 = 0.0987	1023.07	1538	1.96
313.15 K, x1 = 0.1401	1025.67	1542	2.39
313.15 K, x1 = 0.2032	1029.09	1546	2.81
313.15 K, x1 = 0.3166	1032.81	1544	3.37
313.15 K, x1 = 0.3637	1033.73	1543	3.41
313.15 K, x1 = 0.4353	1034.71	1540	3.42
313.15 K, x1 = 0.5625	1035.21	1528	3.16
313.15 K, x1 = 0.6999	1035.7	1517	2.74
313.15 K, x1 = 0.8435	1037.36	1508	2.25
313.15 K, x1 = 0.936	1039.26	1502	2.04
313.15 K, x1 = 0.9675	1040.35	1496	1.92
313.15 K, x1 = 1	1041.7	1490	1.83
